# Assay results taken from patent US20100249175A1, “Dicationic compounds which selectively recognize G-quadruplex DNA” (priority 2005, published 2010).
# Columns and labels:
# [1] = test system: Plasmodium falciparum (P. f.); test: In vitro antiprotozoal activity against P. f.; format: cell-based; conditions: in vitro, read-out: P.f. (IC50)
# Protocol: In vitro antiprotozoal activities were measured following established protocols. […] E., et al., Bioorg.
# [2] = test system: telomeric G-quadruplex DNA sequence d[AG3(T2AG3)3] (SEQ ID NO: 1); test: CD titration of compounds into human telomeric G-quadruplex DNA (induced CD); format: binding
# From the text: The oligonucleotides d[AG3(T2AG3)3] (SEQ ID NO: 1), d[AG3TG4AG3TG4A] (SEQ ID NO: 2), d[G4(T4G4)3] (SEQ ID NO: 3), d[(T2G4)4] (SEQ ID NO: 4), d[(GC)7] (SEQ ID NO: 5), d[[…]] (SEQ ID NO: 6), d[G2T2G2TGTG2T2G2] (SEQ ID NO: 7), d[[…]] (SEQ ID NO: 8), d[[…]] (SEQ ID NO: 9), d[[…]] (SEQ ID NO: 10), d[[…]] (SEQ ID NO: 11), d[TTAGGGT] (SEQ ID NO: 12), and d[TGGGGT] (SEQ ID NO: 13) were purchased with HPLC purification from Midland Certified Reagent Company (The Midland Certified Reagent Company, Inc., Midland, Tex., USA). The concentration of each DNA sample was determined spectrophotometrically at 260 nm using the nearest neighbor extinction coefficient.
# Stock solutions of individual dicationic polyaryl compounds were prepared in double distilled water and diluted to working concentrations immediately before use with buffer. All measurements were performed at 20° C. in a 10 mM HEPES buffer (pH 7.4) containing 3 mM EDTA and 50 mM KCl, NaCl, or LiCl. Absorbance spectra were obtained on a Varian Cary 300 BIO UV-visible spectrophotometer (Varian, Inc., Palo Alto, Calif., United States of America) in a quartz cell with a 1 cm pathlength. CD spectra were recorded using a Jasco J-810 spectrapolarimeter (Jasco, Inc., Easton, Md., United States of America) in a 1-cm cell using an instrument scanning speed of 50 nm/min with a response time of 1 s. The spectra were averaged over four scans. A buffer baseline scan was collected in the same cuvette and subtracted from the average scan for each sample. Appropriate amounts of dicationic compound stock solution or DNA were added sequentially to increase the molar ratio.
# When an achiral ligand binds tightly to a chiral host, such as DNA, a CD signal is induced in the wavelength region corresponding to the absorbance of the ligand. […] An additional negative band centered at 395 nm overlaps with the higher energy exciton band. […] Restriction of the rotational and translational freedom of the two molecules of the dimer relative to each other will cause an increase in the rotational strength of the induced CD band, resulting in a large ellipticity. See Allenmark, S., Chirality, 15, 409-422 (2003).
# Some compounds appeared to bind to the telomeric G-quadruplex DNA sequence d[AG3(T2AG3)3] […] Relative strength of the induced CD is indicated by the number of (+) marks.
# [3] = test system: human telomeric sequence d[AG3(T2AG3)3] (SEQ ID NO: 1); test: Surface plasmon resonance, immobilized human telomeric DNA; format: binding
# Protocol: Surface plasmon resonance (SPR) measurements were performed with a four-channel Biacore® 3000 optical biosensor system (Biacore International AB, Uppsala, Sweden). 5′-biotin labeled DNA was immobilized onto streptavidin-coated Biacore® SA sensor chips as previously described. See Lacy, E. R., et al., J. Amer. Chem. Soc., 124, 2153-2163 (2002); Mazur, S., et al., J. Mol. Biol., 300, 321-337 (2000); Nguyen, B., et al., Biopolymers, 63, 281-297 (2002); Wang, L., et at, Proc. Natl. Acad. Sci. USA, 97, 12-16 (2000); and Wang, L., et al., Biochemistry, 40, 2511-2521 (2001). Two flow cells were used to immobilize the
# DNA oligomer samples, while a third cell was left blank as a control. The SPR studies were performed at 25° C. in a filtered, degassed, 10 mM HEPES buffer (pH 7.4) containing 200 mM KCl, 3 mM EDTA and 0.005% surfactant P20 (Biacore International AB). Compound solutions were prepared by serial dilutions from stock solution and injected from 7-mm plastic vials with pierceable plastic crimp caps.
# Solutions of known concentration of 8 ranging from 2 nM to 10 μM were injected through the flow cells until a constant steady-state response was obtained. […] The instrument response (RU) in the steady-state region was determined by linear averaging over a 50 second time span. The predicted maximum response per bound compound in the steady-state region (RUmax) was determined from the DNA molecular weight, the amount of DNA on the flow cell, the compound molecular weight, and the refractive index gradient ratio of the compound and DNA, as previously described. […] To obtain the binding constants, the data were fitted to a two-site equilibrium model using KaleidaGraph (Synergy Software, Reading, Pa., United States of America) for nonlinear least square optimization of the binding parameters, where RUmax is the maximum response per bound compound and K1 and K2 are the macroscopic binding constants for a two-site binding model: […]
# Surface plasmon resonance (SPR) was used to quantitatively evaluate the interaction between 8 and human telomeric DNA. […]
# [4] = SPR, 25° C., HEPES buffer containing 200 mM KCl
compound,measurement,setting,value
"N=C(N)c1ccc(-c2ccc(-c3ccc(C(=N)N)o3)o2)cc1 [Compound 8, 5′-(4-Amidinophenyl)-2,2′-bifuran-5-carboxamidine]",IC50,[1],41.5 nM
same,exciton splitting in CD spectra (in words),[2],induced exciton splitting
same,Induced CD (exciton),[2]; G-Quadruplex Affinity,+++++
same,selectivity for the human telomeric quadruplex over the duplex DNA,[3]; SPR binding constants,approximately 4 fold
same,"K1, macroscopic binding constant, two-site model",[3]; [4],470000 M⁻¹
same,"K2, macroscopic binding constant, two-site model",[3]; [4],45000 M⁻¹
